Test results as given in patent US4122034A, “Antimicrobial compositions” (Schering Corporation, priority 1975, dated 1978).

Experiments:
Clostridium histolyticum = test: In vitro activity against anaerobes in fluid Thioglycollate medium (Table II); format: cell-based; conditions: Hathewaya histolytica
Protocol: (§1) All the tests were carried out and (when necessary) scored under standard conditions. "MIC" means "minimum inhibitory concentration."
(§2) In vitro activity of 2-aminoalkyl-3-phenylindoles of the formula I
(§3) against anaerobes in fluid Thioglycollate medium

[1] = tested on: Bacteroides melaninogenicus; test: as above; format: cell-based
Protocol: as §1, §2, §3

Clostridium septicum = test: as above; format: cell-based
Protocol: as §1, §2, §3

Candida albicans = test: In vitro Anti-Candida activity, dilutions in Sabouraud's Dextrose Agar (Table III); format: cell-based; conditions: 48 h
Protocol: as §1
In vitro Anti-Candida Activity of 2-aminoalkyl-3-phenyl-
indoles of the formula I. Dilutions in Sabouraud's Dextrose
MIC (mcg/ml) after 48 hours

T. mentagrophytes = test: Effect against topical T. mentagrophytes infections in guinea pigs (Table VI); format: in vivo; design: Average Sum of lesion scores, Days 1-5 / Average Sum of lesion scores, Days 1-10: scale not given here; conditions: for Average Sum of lesion scores, Days 1-5: untreated controls 14.8; for Average Sum of lesion scores, Days 1-10: untreated controls 38.2
Protocol: as §1
Effect of some 2-aminoalkyl-3-phenylindoles of the formula II
against topical T. mentagrophytes infections in guinea pigs.

[2] = strain Atkisson, after 48 hours
[3] = strain Bertrand, after 48 hours
[4] = strain Burnside, after 48 hours
[5] = strain Kenndy 2, after 48 hours
[6] = strain Kennedy 1, after 48 hours
[7] = strain Shurelli, after 48 hours

NCc1[nH]c2ccc(Cl)cc2c1-c1ccccc1F [A, 2-Aminomethyl-5-chloro-3-(2-fluorophenyl)indole]
6.8 days: Average No. of Days to become negative, Cultures (T. mentagrophytes; concentration 1%)
6.0 days: Average No. of Days to become negative, Cultures (T. mentagrophytes; concentration 4%)
14.8: Average Sum of lesion scores, Days 1-10 (T. mentagrophytes; concentration 4%)
7.5 µg/mL: MIC (Clostridium histolyticum; 48 hrs) | MIC (Clostridium histolyticum; 72 hrs) | MIC ([1]; 48 hrs) | MIC ([1]; 72 hrs) | MIC (Clostridium septicum; 48 hrs) | MIC (Clostridium septicum; 72 hrs)
11.2: Average Sum of lesion scores, Days 1-5 (T. mentagrophytes; concentration 4%)
8.8 days: Average No. of Days to become negative, Lesion (T. mentagrophytes; concentration 4%)
11.8: Average Sum of lesion scores, Days 1-5 (T. mentagrophytes; concentration 1%)
9.0 days: Average No. of Days to become negative, Lesion (T. mentagrophytes; concentration 1%)
75 µg/mL: MIC (Candida albicans; strain 1, after 48 hours) | MIC (Candida albicans; strain 2, after 48 hours) | MIC (Candida albicans; strain 3, after 48 hours) | MIC (Candida albicans; strain 4, after 48 hours) | MIC (Candida albicans; strain 5, after 48 hours) | MIC (Candida albicans; strain 6, after 48 hours) | MIC (Candida albicans; strain 8, after 48 hours) | MIC (Candida albicans; strain 9, after 48 hours) | MIC (Candida albicans; strain 29, after 48 hours) | MIC (Candida albicans; [2]) | MIC (Candida albicans; [3]) | MIC (Candida albicans; strain Bevan, after 48 hours) | MIC (Candida albicans; strain Blunden, after 48 hours) | MIC (Candida albicans; strain Bognay, after 48 hours) | MIC (Candida albicans; strain Boyer, after 48 hours) | MIC (Candida albicans; strain Burke, after 48 hours) | MIC (Candida albicans; [4]) | MIC (Candida albicans; strain Collins, after 48 hours) | MIC (Candida albicans; strain Fix, after 48 hours) | MIC (Candida albicans; strain Frazier, after 48 hours) | MIC (Candida albicans; strain Fulcher, after 48 hours) | MIC (Candida albicans; strain Gay, after 48 hours) | MIC (Candida albicans; strain Hons, after 48 hours) | MIC (Candida albicans; strain Johnson, after 48 hours) | MIC (Candida albicans; [5]) | MIC (Candida albicans; strain Lehtman, after 48 hours) | MIC (Candida albicans; strain Lusk, after 48 hours) | MIC (Candida albicans; strain Merkel, after 48 hours) | MIC (Candida albicans; strain Sherod, after 48 hours) | MIC (Candida albicans; [7]) | MIC (Candida albicans; strain Sparks, after 48 hours) | MIC (Candida albicans; strain Tyner, after 48 hours)
37.5 µg/mL: MIC (Candida albicans; [6]) | MIC (Candida albicans; strain Newcomb, after 48 hours)
16.0: Average Sum of lesion scores, Days 1-10 (T. mentagrophytes; concentration 1%)

NCc1[nH]c2ccc(Cl)cc2c1-c1c(F)cccc1F [B, 2-aminomethyl-5-chloro-3-(2,6-difluorophenyl)indole]
10.0: Average Sum of lesion scores, Days 1-10 (T. mentagrophytes; concentration 4%)
20.0: Average Sum of lesion scores, Days 1-10 (T. mentagrophytes; concentration 1%)
37.5 µg/mL: MIC (Candida albicans; strain Newcomb, after 48 hours)
7.5 µg/mL: MIC (Clostridium histolyticum; 48 hrs) | MIC (Clostridium histolyticum; 72 hrs) | MIC ([1]; 48 hrs)
75 µg/mL: MIC (Candida albicans; strain 2, after 48 hours) | MIC (Candida albicans; strain 4, after 48 hours) | MIC (Candida albicans; strain 5, after 48 hours) | MIC (Candida albicans; strain 9, after 48 hours) | MIC (Candida albicans; strain 29, after 48 hours) | MIC (Candida albicans; [2]) | MIC (Candida albicans; strain Blunden, after 48 hours) | MIC (Candida albicans; strain Bognay, after 48 hours) | MIC (Candida albicans; strain Burke, after 48 hours) | MIC (Candida albicans; strain Collins, after 48 hours) | MIC (Candida albicans; strain Fix, after 48 hours) | MIC (Candida albicans; strain Fulcher, after 48 hours) | MIC (Candida albicans; [6]) | MIC (Candida albicans; strain Lusk, after 48 hours) | MIC (Candida albicans; strain Merkel, after 48 hours)
17.5 µg/mL: MIC ([1]; 72 hrs)
5.0 days: Average No. of Days to become negative, Cultures (T. mentagrophytes; concentration 4%)
3 µg/mL: MIC (Clostridium septicum; 48 hrs) | MIC (Clostridium septicum; 72 hrs)
7.2 days: Average No. of Days to become negative, Lesion (T. mentagrophytes; concentration 4%)
9.2: Average Sum of lesion scores, Days 1-5 (T. mentagrophytes; concentration 4%)
9.6 days: Average No. of Days to become negative, Cultures (T. mentagrophytes; concentration 1%)
14.2 days: Average No. of Days to become negative, Lesion (T. mentagrophytes; concentration 1%)
150 µg/mL: MIC (Candida albicans; strain 1, after 48 hours) | MIC (Candida albicans; strain 3, after 48 hours) | MIC (Candida albicans; strain 6, after 48 hours) | MIC (Candida albicans; strain 8, after 48 hours) | MIC (Candida albicans; [3]) | MIC (Candida albicans; strain Bevan, after 48 hours) | MIC (Candida albicans; strain Boyer, after 48 hours) | MIC (Candida albicans; [4]) | MIC (Candida albicans; strain Frazier, after 48 hours) | MIC (Candida albicans; strain Gay, after 48 hours) | MIC (Candida albicans; strain Hons, after 48 hours) | MIC (Candida albicans; strain Johnson, after 48 hours) | MIC (Candida albicans; [5]) | MIC (Candida albicans; strain Lehtman, after 48 hours) | MIC (Candida albicans; strain Sherod, after 48 hours) | MIC (Candida albicans; [7]) | MIC (Candida albicans; strain Sparks, after 48 hours) | MIC (Candida albicans; strain Tyner, after 48 hours)
11.6: Average Sum of lesion scores, Days 1-5 (T. mentagrophytes; concentration 1%)
